Results published in patent US20210338648A1, “METHODS AND COMPOSITIONS FOR REDUCING SERUM URIC ACID” (AstraZeneca AB, priority 2018, published 2021).
“Also recorded” adds a separate entry of the source.

Legend:
[1] = Phase 2 crossover study: serum uric acid (sUA) after 7 days of treatment; assay type: in vivo, human; conditions: dapagliflozin added to verinurad + febuxostat; D7
Source text: (§1) Thirty-six asymptomatic hyperuricemic patients aged 18 to 65 years (inclusive) were enrolled into this study at two study centers. Twenty-four patients were enrolled and completed the study. Due to inadequate urine sampling, 12 additional patients were included to ensure an adequate sample size (at least 20 evaluable patients) to evaluate the effects of intensive UA lowering with verinurad, febuxostat and dapagliflozin on urinary excretion of UA. With 24 completers available during the interim analysis, this will provide for a total sample size of 36 evaluable patients.
• 1. […] At screening: One sUA assessment. […] Area under plasma concentration time curve over a dosing interval (24 hours) (AUCτ) assessment for verinurad and its main metabolites, febuxostat, and dapagliflozin [Time Frame: On Treatment Period 1 and 2: Day 7 (Pre-dose and 15 minutes, 30 minutes, 1 hour, 1.5, 2, 3, 4, 8, 12 and 24 hours post-dose)] • To assess AUCT after administration of single oral fixed dose of verinurad+febuxostat+dapagliflozin/placebo • 3. […]

[2] = Phase 2 crossover study: urinary excretion of uric acid (uUA); assay type: in vivo, human
Source text: Thirty-six asymptomatic hyperuricemic patients aged 18 to 65 years (inclusive) were enrolled into this study at two study centers. Twenty-four patients were enrolled and completed the study. Due to inadequate urine sampling, 12 additional patients were included to ensure an adequate sample size (at least 20 evaluable patients) to evaluate the effects of intensive UA lowering with verinurad, febuxostat and dapagliflozin on urinary excretion of UA. With 24 completers available during the interim analysis, this will provide for a total sample size of 36 evaluable patients. Before any study specific assessments were performed, potential patients provided informed consent. Each patient underwent the below mentioned visits: • A Screening period of maximum 28 days; • Two treatment periods during which patients were resident in the Clinical Unit from Day −2 to Day 1 and from Day 6 to Day 8; and • A Follow-up Visit within 14 to 28 days after the first administration of Investigational Medicinal Product (IMP) in Treatment Period 2. […] Treatment Period 1 and Treatment Period 2 were separated by a washout period of 7 to 21 days. • 1.

[3] = Phase 2 crossover study: safety and tolerability (adverse events, serum creatinine, serum sodium); assay type: in vivo, human; conditions: Grp1 vs Grp2
Source text: as §1, with “patients. […] At screening: One sUA assessment. […] On Treatment Period 1 and 2: […] On Treatment Period 1 and 2: […] Systolic blood pressure [SBP] […] Diastolic blood pressure [DBP]” for “patients.”

[4] = co-administration, Day 7
Method: This study was a randomized, placebo controlled, double-blind, 2-way crossover study conducted on asymptomatic hyperuricemic patients.
On Day −2 of Treatment period 1, patients were randomized (1:1) to 1 of 2 treatment sequences (AB or BA). […] On Day 1, after all dosing and all assessments were performed, patients received instruction to administer the IMP at home once daily in the morning from Day 2 to Day 6 and the IMP dispensed for home dosing. Patients returned to the Clinical Unit on Day 6 and were residential in the Clinical Unit from Day 6 to Day 8.

CCOc1ccc(Cc2cc([C@@H]3O[C@H](CO)[C@@H](O)[C@H](O)[C@H]3O)ccc2Cl)cc1 [dapagliflozin]
sUA levels (result in words) [1]: significantly reduced; also recorded: additional sUA lowering
peak uUA excretion (result in words) ([2]; dapagliflozin 10 mg/day added to verinurad 9 mg/day + febuxostat 80 mg/day, D7): no increase; also recorded: without an increase in uUA excretion
total 24 h uUA excretion (result in words) ([2]; dapagliflozin added to verinurad + febuxostat vs placebo, 24 h urine, all subjects): no difference
serum creatinine (sCr), between-group difference [3]: without an increase in uUA excretion, or changes in sCr
effect on febuxostat pharmacokinetics [4]: did not affect
effect on verinurad pharmacokinetics [4]: did not affect
